Experimental data published in US20130109664A1 (priority 2011, published 2013).
Like-named read-outs stand apart in the source and are kept apart here.

Tests used:
Malassezia furfur = experiment: Intrinsic anti-Malassezia potency, growth inhibition by optical density; format: cell-based; conditions: for IC50: M. furfur in mDixon medium, overnight at 31°, OD 600 nm; for independent anti-fungal effectiveness (in words): comment on Table 1 data
Experimental: To measure the growth inhibition properties of test materials against Malassezia, we carried out the following protocol.
Starting cultures are prepared by incubating with shaking at 31°. Cells (5 ml of culture) are collected by centrifugation and suspended in 50 ml fresh mDixon medium. […] The plates are shaken vigorously on a Heidolph Titramax 100 overnight at 31°. To increase the humidity, water-soaked cotton batting is placed over the plates.
As a control, the optical density of untreated M. furfur is measured after overnight incubation. As another control, the optical density of the starting culture is measured. The difference between these optical densities represents the amount of growth of M. furfur.

[1] = cited from earlier work
M. furfur 7982 = experiment: Fractional Inhibitor Concentration (FIC) of chelator in combination with ZPT; format: cell-based, Malassezia furfur; conditions: average of duplicate plates, 2 days at 33° C., ≦0.5 synergistic, >0.5-1.0 additive
Description: Fractional Inhibitor Concentration (FIC) is a conventional methodology for evaluating antimicrobial interactions. In an embodiment of the present invention, an FIC is used to determine combinatorial effects of two chemicals on anti-Malassezia activity in a tissue culture setting.
• 1. Each FIC assay is run in duplicate. • 2. Low levels of M. furfur 7982 cells are inoculated into each well of a 96 well plate. • 3. Chemical #1 (in our assays, this is always ZPT) is titrated (2× concentration reductions) from right to left across each row of the plate, starting at 12.5 ppm final concentration and ending at 0 ppm. • 4. […] Plates are incubated at 33° C., 60% RH for 2 days with agitation. • 6. Optical densities (OD's) are then determined using a spectrophotometer.
• 1. […] Lack of inhibition of growth is determined if the OD>0.6, and the well is labeled with a ‘+’. • 3. The lowest concentration value of chemical #1, both by itself and with the lowest concentration of chemical #1 which boosts chemical #2's potency, that inhibit growth are determined (see FIG. 1). • 4. Likewise, the lowest concentration of chemical #2, both by itself and with the lowest concentration of chemical #2 that boosts chemical #1's potency, that inhibit growth are determined (see FIG. 1). • 5. The FIC value for the duplicate plates is determined using the calculations below:
[formula] [formula] • 6. The average FIC value is then determined, and the combinatorial effect of the two chemicals is classified according to the chart below: […]

[2] = Iron affinity, stepwise association constant log K1; format: physicochemical
Description: The strength of the association between a ligand and metal, in this case iron, can be termed iron affinity.
The affinity constant is conveniently expressed as the logarithm (log K1) and the larger the magnitude of this number, the stronger the association between the metal (iron ions in this case) and ligand.

[3] = source (a) NIST Standard Reference Database 46
[4] = (e) interpolated from correlation between Cu2+ and Fe2+ data
[5] = (c) interpolated from correlation between Zn2+ and Fe2+ data
[6] = (d) interpolated from correlation between Fe3+ and Fe2+ data
[7] = source (b) IUPAC Stability Constant Database

In the case of `O=C(O)CN(CC(=O)O)[C@@H]1CCCC[C@H]1N(CC(=O)O)CC(=O)O` (relative stereo) [trans-1,2-Cyclohexylenedinitrilotetraacetic acid], the IC50 (Malassezia furfur) is listed as 500 µM and the “Iron Affinity, log K1 Fe2+, pH = 7.4” value [1, 3] is listed as 14.0.

For `Cc1c([O-])c(=O)ccn1C.Cc1c([O-])c(=O)ccn1C.[Zn+2]` [1,2-Dimethyl-3-hydroxy-4-pyridone, Zinc salt], the “FIC (Fractional Inhibitory Concentration)” value (M. furfur 7982) was 0.5.

With `C1CNCCNCCNCCNCCNCCN1` [1,4,7,10,13,16-Hexaazacyclooctadecane] the “Iron Affinity, log K1 Fe2+, pH = 7.4” value [2, 4] was 13.3.

For `O=C(O)CN1CCCN(CC(=O)O)CCN(CC(=O)O)CCCN(CC(=O)O)CC1` [1,4,8,11-Tetraazacyclotetradecane-N,N′,N″,N″′-tetraacetic acid], the IC50 (Malassezia furfur) is given as > 500 µM and the “Iron Affinity, log K1 Fe2+, pH = 7.4” value [1, 3] is given as 9.9.

For `S=C(N=Nc1ccccc1)NNc1ccccc1` [1,5-Diphenyl-1,2,4,5-tetraazapent-1-en-3-thione], the “Iron Affinity, log K1 Fe2+, pH = 7.4” value [1, 3] is listed as 6.5.

In the case of `c1cnc2c(c1)ccc1cccnc12` [1,10-Phenanthroline], the “Iron Affinity, log K1 Fe2+, pH = 7.4” value [1, 3] is given as 5.9.

In the case of `Oc1ccc2ccccc2c1N=Nc1nccs1` [1-(2-Thiazoylazo)-2-naphthol], the “Iron Affinity, log K1 Fe2+, pH = 7.4” value [2, 5] is reported as 6.6 and the IC50 (Malassezia furfur) is reported as 250 µM.

With `CC(C)c1cccc(O)c(=O)c1` [1-Hydroxy-4-(1-methylethyl)cyclohepta-3,5,7-trien-2-one] the “Iron Affinity, log K1 Fe2+, pH = 7.4” value [2, 5] was 4.9 and the IC50 (Malassezia furfur; Malassezia furfur) was 65 µM.

For `c1ccc(-c2cccc(-c3ccccn3)n2)nc1` [2,2′: 6′,2″-terpyridine], the “Iron Affinity, log K1 Fe2+, pH = 7.4” value [2, 5] was 5.0.

In the case of `Cc1ccc2ccc3ccc(C)nc3c2n1` [2,9-dimethyl-1,10-phenanthroline], the “Iron Affinity, log K1 Fe2+, pH = 7.4” value [2, 5] is reported as 3.3.

In the case of `NCCc1ccccn1` [2-(2-aminoethyl)-pyridine], the “Iron Affinity, log K1 Fe2+, pH = 7.4” value [2, 6] is reported as 5.2.

With `Cc1c(O)c(=O)ccn1C` [3-Hydroxy-1,2-dimethyl-4(1H)-pyridone] the “Iron Affinity, log K1 Fe2+, pH = 7.4” value [2, 5] was 3.9.

For `Oc1ccc(N=Nc2nccs2)c(O)c1` [4-(2-thiazolylazo)-resorcinol], the “Iron Affinity, log K1 Fe2+, pH = 7.4” value [1, 3] is listed as 3.2.

For `Oc1c(Cl)cc(Cl)c2cccnc12` [5,7-dichloro-8-hydroxyquinoline], the “Iron Affinity, log K1 Fe2+, pH = 7.4” value [1, 7] is listed as 7.2.

In the case of `Oc1c(I)cc(Cl)c2cccnc12` [5-Chloro-8-hydroxy-7-iodoquinoline], the “Iron Affinity, log K1 Fe2+, pH = 7.4” value [1, 7] is listed as 7.0.

With `Oc1cccc2cccnc12` [8-hydroxyquinoline] the “Iron Affinity, log K1 Fe2+, pH = 7.4” value [2, 5] was 4.9.

In the case of `O=C(O)CN(CCN(CC(=O)O)CC(=O)O)CC(=O)O` [Ethylenediaminetetraacetic acid], the IC50 (Malassezia furfur; Malassezia furfur) is reported as > 500 µM and the “independent anti-fungal effectiveness (in words)” value (Malassezia furfur) is reported as “not to be effective”.

With `CCC(NCCNC(CC)C(=O)O)C(=O)O` (stereo not shown) [Ethylenediiminodi-2-butanoic acid] the “Iron Affinity, log K1 Fe2+, pH = 7.4” value [2, 5] was 6.3 and the IC50 (Malassezia furfur) was > 500 µM.

In the case of `c1ccc(CN(CCN(Cc2ccccn2)Cc2ccccn2)Cc2ccccn2)nc1` [N,N,N′,N-tetrakis(2-pyridylmethyl) ethylenediamine], the IC50 (Malassezia furfur) is listed as 71 µM and the “Iron Affinity, log K1 Fe2+, pH = 7.4” value [1, 3] is listed as 14.2.

For `O=C(O)CN(CCO)CCO` [N,N-Bis(2-hydroxyethyl)glycine], the “Iron Affinity, log K1 Fe2+, pH = 7.4” value [2, 5] was 3.6.

With `O=C1c2cccc3cccc(c23)C(=O)N1O` [N,N-Naphthaloylhydroxylamine] the “FIC (Fractional Inhibitory Concentration)” value (M. furfur 7982) was 0.8.

For `CCCCCCCCOc1cccc(=O)n1O.NCCO` [N-Hydroxy-6-octyloxypyridine-2(1H)one, ethanolamine salt], the “Iron Affinity, log K1 Fe2+, pH = 7.4” value [2, 6] was 5.4, the IC50 (Malassezia furfur) was 54.6 µM and the “FIC (Fractional Inhibitory Concentration)” value (M. furfur 7982) was 0.62.

In the case of `CCCCCCCCOc1cccc(=O)n1[O-].CCCCCCCCOc1cccc(=O)n1[O-].[Zn+2]` [N-Hydroxy-6-octyloxypyridine-2(1H)one, zinc salt], the “FIC (Fractional Inhibitory Concentration)” value (M. furfur 7982) is reported as 0.7.

In the case of `O=C(O)c1ccccc1O` [Salicylic acid], the “Iron Affinity, log K1 Fe2+, pH = 7.4” value [2, 4] is reported as −3.0 and the IC50 (Malassezia furfur; Malassezia furfur) is reported as > 500 µM.

For `Cc1occc(=S)c1O` [Thiomaltol], the “FIC (Fractional Inhibitory Concentration)” value (M. furfur 7982) was 0.8.

For `[O-]n1ccccc1=S.[O-]n1ccccc1=S.[Zn+2]` [Zinc Pyrithione, zinc salt of 1-hydroxy-2-pyridinethione], the “Iron Affinity, log K1 Fe2+, pH = 7.4” value [2, 5] was 4.3.

With `NCCC(=O)N[C@@H](Cc1c[nH]cn1)C(=O)O` [beta-Alanyl-L-histidine] the “Iron Affinity, log K1 Fe2+, pH = 7.4” value [2, 5] was 1.3.

With `O=c1cc(CO)occ1O` [kojic acid] the “Iron Affinity, log K1 Fe2+, pH = 7.4” value [2, 5] was 3.7.

In the case of `Cc1occc(=O)c1O` [maltol], the “Iron Affinity, log K1 Fe2+, pH = 7.4” value [2, 5] is reported as 6.4 and the “independent anti-fungal effectiveness (in words)” value (Malassezia furfur) is reported as “too hydrophilic to be an effective anti-fungal material independently”.

In the case of Benzohydroxamic acid, Zinc Salt, the “FIC (Fractional Inhibitory Concentration)” value (M. furfur 7982) is reported as 0.3.

With Maltol, Zinc salt the “FIC (Fractional Inhibitory Concentration)” value (M. furfur 7982) was 0.1.

With Thiomaltol, Zinc salt the “FIC (Fractional Inhibitory Concentration)” value (M. furfur 7982) was 0.5.
